Legend:
Assay in all cases: biochemical
Design in all cases: KINOMEscan active-site competition binding, percent of control (100 = no competition)
Conditions in all cases: competition binding, percent control
[1] = target: EPHB3 (Homo sapiens, UniProt P54753)
[2] = target: PAK2 (Homo sapiens, UniProt Q13177)
[3] = target: FLT3(K663Q) (Homo sapiens, UniProt P36888, K663Q)
[4] = target: MET(M1250T) (Homo sapiens, UniProt P08581, M1250T)
[5] = target: T1, ADCK4 (Homo sapiens, UniProt Q96D53)
T1 construct: gene COQ8B

[6] = target: T2, ABL1(H396P)-nonphosphorylated (Homo sapiens, UniProt P00519, H396P)
T2 construct: nonphosphorylated

[7] = target: TIE1 (Homo sapiens, UniProt P35590)
[8] = target: EGFR(T790M) (Homo sapiens, UniProt P00533, T790M)
[9] = target: T3, LOK (Homo sapiens, UniProt O94804)
T3 construct: gene STK10

[10] = target: CLK4 (Homo sapiens, UniProt Q9HAZ1)
[11] = target: EPHB6 (Homo sapiens, UniProt O15197)
[12] = target: EGFR(L858R,T790M) (Homo sapiens, UniProt P00533, L858R/T790M)
[13] = target: KIT(D816H) (Homo sapiens, UniProt P10721, D816H)
[14] = target: T4, PCTK2 (Homo sapiens, UniProt Q00537)
T4 construct: gene CDK17

[15] = target: RET(V804L) (Homo sapiens, UniProt P07949, V804L)
[16] = target: FLT3(R834Q) (Homo sapiens, UniProt P36888, R834Q)
[17] = target: T5, TRKA (Homo sapiens, UniProt P04629)
T5 construct: gene NTRK1

[18] = target: T6, RSK3(Kin.Dom.2-C-terminal) (Homo sapiens, UniProt Q15349)
T6 construct: gene RPS6KA2; Kin.Dom.2-C-terminal

[19] = target: PIK3C2G (Homo sapiens, UniProt O75747)
[20] = target: HIPK1 (Homo sapiens, UniProt Q86Z02)
[21] = target: RET(V804M) (Homo sapiens, UniProt P07949, V804M)
[22] = target: AURKA (Homo sapiens, UniProt O14965)
Chain of AURKA (O14965 whole entry): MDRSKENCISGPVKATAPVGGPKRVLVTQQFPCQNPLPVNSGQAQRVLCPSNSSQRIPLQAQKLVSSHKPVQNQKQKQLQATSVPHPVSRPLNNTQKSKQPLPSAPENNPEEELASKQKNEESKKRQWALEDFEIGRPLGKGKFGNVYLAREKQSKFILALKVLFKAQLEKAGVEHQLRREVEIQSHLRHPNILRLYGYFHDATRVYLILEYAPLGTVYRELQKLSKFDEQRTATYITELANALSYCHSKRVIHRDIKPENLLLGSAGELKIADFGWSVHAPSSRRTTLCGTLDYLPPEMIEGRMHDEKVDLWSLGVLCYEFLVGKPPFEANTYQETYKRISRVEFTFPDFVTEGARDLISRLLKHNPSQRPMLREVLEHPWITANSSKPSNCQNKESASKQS

Chain of EGFR(L858R,T790M) (P00533 whole entry T790M/L858R): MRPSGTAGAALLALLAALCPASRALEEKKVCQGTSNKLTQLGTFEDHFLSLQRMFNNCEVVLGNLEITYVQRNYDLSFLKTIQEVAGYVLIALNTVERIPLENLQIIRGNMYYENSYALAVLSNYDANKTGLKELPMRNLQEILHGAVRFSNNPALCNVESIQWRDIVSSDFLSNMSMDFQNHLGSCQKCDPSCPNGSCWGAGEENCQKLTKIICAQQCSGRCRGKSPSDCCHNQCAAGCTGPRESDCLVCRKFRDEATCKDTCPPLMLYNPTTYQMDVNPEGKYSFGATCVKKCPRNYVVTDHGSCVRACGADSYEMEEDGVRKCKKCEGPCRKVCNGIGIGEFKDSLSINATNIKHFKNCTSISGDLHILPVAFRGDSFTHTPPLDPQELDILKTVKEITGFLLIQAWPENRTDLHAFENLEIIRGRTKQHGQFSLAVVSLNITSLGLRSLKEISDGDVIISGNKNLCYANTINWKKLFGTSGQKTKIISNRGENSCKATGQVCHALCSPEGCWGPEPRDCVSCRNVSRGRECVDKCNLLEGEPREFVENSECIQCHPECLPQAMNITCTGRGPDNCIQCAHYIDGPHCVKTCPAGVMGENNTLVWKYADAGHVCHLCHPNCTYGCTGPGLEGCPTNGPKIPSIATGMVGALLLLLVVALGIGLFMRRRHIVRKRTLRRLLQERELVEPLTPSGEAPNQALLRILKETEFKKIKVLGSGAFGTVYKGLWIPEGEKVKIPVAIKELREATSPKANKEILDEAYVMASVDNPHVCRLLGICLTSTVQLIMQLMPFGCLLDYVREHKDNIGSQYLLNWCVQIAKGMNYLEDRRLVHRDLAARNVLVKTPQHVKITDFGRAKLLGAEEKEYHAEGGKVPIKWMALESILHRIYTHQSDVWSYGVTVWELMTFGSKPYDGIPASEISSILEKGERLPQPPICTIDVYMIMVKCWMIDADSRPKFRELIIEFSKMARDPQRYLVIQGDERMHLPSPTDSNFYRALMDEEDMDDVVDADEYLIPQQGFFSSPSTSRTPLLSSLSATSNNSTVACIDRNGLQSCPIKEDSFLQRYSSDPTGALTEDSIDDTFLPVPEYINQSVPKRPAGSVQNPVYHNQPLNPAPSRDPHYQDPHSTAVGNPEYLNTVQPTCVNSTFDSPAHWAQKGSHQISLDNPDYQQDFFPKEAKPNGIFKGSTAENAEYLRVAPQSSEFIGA
T1 sequence (Q96D53 whole entry): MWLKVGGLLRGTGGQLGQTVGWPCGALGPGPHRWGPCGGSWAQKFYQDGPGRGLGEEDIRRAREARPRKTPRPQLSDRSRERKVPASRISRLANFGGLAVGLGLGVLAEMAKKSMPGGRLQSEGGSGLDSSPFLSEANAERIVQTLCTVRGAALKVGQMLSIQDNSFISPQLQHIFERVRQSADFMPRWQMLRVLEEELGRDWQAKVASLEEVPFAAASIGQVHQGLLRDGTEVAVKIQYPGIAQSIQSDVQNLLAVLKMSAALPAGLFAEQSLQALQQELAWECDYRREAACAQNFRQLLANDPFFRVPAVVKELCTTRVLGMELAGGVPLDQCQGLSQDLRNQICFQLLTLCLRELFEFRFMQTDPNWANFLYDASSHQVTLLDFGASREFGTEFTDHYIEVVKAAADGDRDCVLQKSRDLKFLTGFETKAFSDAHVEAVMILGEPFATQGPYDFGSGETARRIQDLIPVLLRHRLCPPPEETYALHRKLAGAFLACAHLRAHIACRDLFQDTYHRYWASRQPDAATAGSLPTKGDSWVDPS
Chain of CLK4 (Q9HAZ1 whole entry): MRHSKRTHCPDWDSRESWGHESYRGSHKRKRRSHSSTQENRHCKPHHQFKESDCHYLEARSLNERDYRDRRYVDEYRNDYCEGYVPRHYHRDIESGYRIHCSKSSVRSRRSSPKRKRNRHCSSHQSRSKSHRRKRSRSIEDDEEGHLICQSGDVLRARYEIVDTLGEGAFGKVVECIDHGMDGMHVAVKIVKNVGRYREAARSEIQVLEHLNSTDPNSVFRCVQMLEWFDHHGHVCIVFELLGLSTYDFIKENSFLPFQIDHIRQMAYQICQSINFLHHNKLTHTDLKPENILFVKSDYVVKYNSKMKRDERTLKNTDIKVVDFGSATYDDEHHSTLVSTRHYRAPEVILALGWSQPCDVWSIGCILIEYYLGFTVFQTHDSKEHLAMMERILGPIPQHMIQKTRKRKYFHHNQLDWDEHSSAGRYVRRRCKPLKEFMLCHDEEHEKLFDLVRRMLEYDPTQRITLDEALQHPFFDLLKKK
Chain of RET(V804L) (P07949 whole entry V804L): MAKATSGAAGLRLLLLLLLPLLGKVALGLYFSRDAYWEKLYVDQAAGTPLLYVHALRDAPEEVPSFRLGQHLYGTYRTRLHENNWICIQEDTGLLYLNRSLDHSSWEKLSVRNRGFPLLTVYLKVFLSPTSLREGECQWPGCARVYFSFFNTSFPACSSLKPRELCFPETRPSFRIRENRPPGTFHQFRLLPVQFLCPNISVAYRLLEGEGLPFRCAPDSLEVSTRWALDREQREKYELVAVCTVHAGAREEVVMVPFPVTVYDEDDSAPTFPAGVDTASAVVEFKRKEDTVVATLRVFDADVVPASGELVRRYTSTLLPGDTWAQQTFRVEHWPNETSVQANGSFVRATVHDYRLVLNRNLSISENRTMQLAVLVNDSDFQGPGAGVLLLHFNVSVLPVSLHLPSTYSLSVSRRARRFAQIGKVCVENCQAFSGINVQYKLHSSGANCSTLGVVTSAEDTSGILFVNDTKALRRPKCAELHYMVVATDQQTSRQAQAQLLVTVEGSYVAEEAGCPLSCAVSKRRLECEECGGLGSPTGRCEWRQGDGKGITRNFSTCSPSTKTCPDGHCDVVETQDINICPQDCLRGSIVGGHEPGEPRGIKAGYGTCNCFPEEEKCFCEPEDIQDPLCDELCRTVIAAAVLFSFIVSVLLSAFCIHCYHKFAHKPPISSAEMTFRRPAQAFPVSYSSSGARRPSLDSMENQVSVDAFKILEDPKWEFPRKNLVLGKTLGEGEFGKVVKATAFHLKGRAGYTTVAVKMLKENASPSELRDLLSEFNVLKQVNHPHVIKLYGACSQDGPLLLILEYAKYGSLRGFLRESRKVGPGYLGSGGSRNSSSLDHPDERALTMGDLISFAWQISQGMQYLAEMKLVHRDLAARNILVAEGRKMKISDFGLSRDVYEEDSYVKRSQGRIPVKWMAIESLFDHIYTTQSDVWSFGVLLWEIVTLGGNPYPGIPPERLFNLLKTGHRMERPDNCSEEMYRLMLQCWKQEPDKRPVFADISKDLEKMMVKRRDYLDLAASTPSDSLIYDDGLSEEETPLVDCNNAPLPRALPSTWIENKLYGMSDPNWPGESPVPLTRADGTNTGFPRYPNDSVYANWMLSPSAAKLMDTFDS
Chain of HIPK1 (Q86Z02 whole entry): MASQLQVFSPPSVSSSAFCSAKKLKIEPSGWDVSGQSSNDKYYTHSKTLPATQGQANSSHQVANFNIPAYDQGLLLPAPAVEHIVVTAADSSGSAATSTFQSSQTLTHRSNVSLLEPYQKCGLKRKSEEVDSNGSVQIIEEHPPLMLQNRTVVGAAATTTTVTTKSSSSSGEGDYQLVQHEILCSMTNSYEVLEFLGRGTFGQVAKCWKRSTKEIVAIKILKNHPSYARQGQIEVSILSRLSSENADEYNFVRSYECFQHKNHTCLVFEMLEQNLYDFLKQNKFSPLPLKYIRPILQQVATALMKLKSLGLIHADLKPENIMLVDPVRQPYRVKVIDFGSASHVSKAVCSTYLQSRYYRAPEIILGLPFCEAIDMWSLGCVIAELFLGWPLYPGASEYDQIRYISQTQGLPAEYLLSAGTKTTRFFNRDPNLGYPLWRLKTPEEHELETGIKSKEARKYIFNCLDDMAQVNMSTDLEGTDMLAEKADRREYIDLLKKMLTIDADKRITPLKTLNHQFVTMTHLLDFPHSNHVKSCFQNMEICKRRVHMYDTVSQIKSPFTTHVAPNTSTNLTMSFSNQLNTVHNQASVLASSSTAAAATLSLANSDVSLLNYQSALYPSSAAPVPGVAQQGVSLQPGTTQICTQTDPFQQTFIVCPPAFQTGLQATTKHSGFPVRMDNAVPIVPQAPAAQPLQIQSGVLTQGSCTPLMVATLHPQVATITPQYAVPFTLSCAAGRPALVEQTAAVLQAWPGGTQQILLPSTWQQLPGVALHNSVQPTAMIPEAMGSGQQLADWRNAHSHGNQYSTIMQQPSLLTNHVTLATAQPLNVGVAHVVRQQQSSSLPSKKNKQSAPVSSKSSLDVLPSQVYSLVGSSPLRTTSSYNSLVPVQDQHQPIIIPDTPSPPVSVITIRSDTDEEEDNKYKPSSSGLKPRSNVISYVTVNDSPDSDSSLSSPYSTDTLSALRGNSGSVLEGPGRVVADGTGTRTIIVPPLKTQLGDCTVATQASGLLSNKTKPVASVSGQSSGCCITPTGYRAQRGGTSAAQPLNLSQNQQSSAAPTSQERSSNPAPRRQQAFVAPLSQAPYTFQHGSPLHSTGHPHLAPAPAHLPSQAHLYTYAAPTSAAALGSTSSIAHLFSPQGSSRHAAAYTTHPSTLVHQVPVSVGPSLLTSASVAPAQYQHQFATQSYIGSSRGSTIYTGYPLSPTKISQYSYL
Chain of RET(V804M) (P07949 whole entry V804M): as the sequence (P07949 whole entry V804L) above, with L804M counted along it

SMILES	remaining binding at 10 µM [1]	remaining binding at 10 µM [2]	remaining binding at 10 µM [3]	remaining binding at 10 µM [4]	remaining binding at 10 µM [5]	remaining binding at 10 µM [6]	remaining binding at 10 µM [7]	remaining binding at 10 µM [8]	remaining binding at 10 µM [9]	remaining binding at 10 µM [10]	remaining binding at 10 µM [11]	remaining binding at 10 µM [12]	remaining binding at 10 µM [13]	remaining binding at 10 µM [14]	remaining binding at 10 µM [15]	remaining binding at 10 µM [16]	remaining binding at 10 µM [17]	remaining binding at 10 µM [18]	remaining binding at 10 µM [19]	remaining binding at 10 µM [20]	further results
COc1ccc(-c2cnccc2-c2cnc(NC(=O)C(C)C)s2)c(C(F)(F)F)c1 [CRT0105446, N-{5-[3-(4-Methoxy-2-trifluoromethyl-phenyl)-pyridin-4-yl]-hiazol-2-yl}-isobutyramide]	83%	80%	34%	93%	85%	71%	87%	78%	100%	100%	86%	91%	89%	17%	99%	88%	70%	93%	100%	100%	remaining binding at 10 µM [21]: 68%; remaining binding at 10 µM [22]: 100%
Cc1ccc(-c2cnccc2-c2cnc(Nc3ccc(O)cc3)s2)c(Cl)c1 [CRT0105950, 4-{5-[3-(2-Chloro-4-methyl-phenyl)-pyridin-4-yl]-thiazol-2-ylamino}-phenol]	96%	76%	0.5%	19%	58%	27%	16%	63%	51%	1.6%	17%	89%	46%	52%	5.8%	18%	1%	88%	95%	65%	remaining binding at 10 µM [21]: 3.4%; remaining binding at 10 µM [22]: 18%

Reference: publication PMC4770715, “LIM kinase inhibitors disrupt mitotic microtubule organization and impair tumor cell proliferation” (Oncotarget, 2015)
